In test [1] the test system is P2X receptors on dorsal root ganglion nerve terminals in the spinal cord. The note with it: ATP-induced activation of P2X receptors on dorsal root ganglion nerve terminals; cited from earlier work.
A further test deals with T1, human P2X3 receptors (Homo sapiens, UniProt P56373).
T1 construct: expressed in transfected cells; host or cells: Xenopus laevis oocytes (nuclear injection of the P2X3 insert in pCDNA3.1)
T1 sequence (P56373 1-397): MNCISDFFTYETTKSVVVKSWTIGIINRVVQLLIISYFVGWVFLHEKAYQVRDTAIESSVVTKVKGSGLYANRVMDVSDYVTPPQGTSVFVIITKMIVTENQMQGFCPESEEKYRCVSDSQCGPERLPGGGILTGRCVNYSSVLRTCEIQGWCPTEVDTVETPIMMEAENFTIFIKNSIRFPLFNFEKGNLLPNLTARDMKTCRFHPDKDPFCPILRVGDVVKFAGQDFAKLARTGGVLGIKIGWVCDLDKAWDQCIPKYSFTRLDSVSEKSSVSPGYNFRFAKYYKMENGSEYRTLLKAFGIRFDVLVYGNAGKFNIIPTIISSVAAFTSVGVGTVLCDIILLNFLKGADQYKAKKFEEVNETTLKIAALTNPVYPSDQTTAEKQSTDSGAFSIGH
Briefly: Two-electrode voltage-clamp of Xenopus oocytes expressing recombinant human P2X3 receptor. As to conditions: for rank order potency: extracellular P2 receptor agonists; for rank order potency / block of P2X3 receptors: summary; for block of ATP-induced currents: ATP 0.3 μM, antagonist superfused at least 3 minutes before agonist; for block of P2X3 receptors: P2 receptor antagonists. Type of test: cell-based. How it is done:
Responses were measured at a holding potential of -60 mV in modified Barth's solution containing 10 mM BaCl2 and lacking CaCl2 and MgCl2 (final pH 7.4). However, in some experiments, the cell potential was intentionally varied in order to determine the response current-voltage relationship. Agonist was applied briefly using a computer-controlled solenoid valve and a push/pull applicator positioned to within 200-400 μm from the oocyte. Responses were recorded by computer in synchrony with agonist application. Antagonists were included with agonist in the push/pull applicator and were applied to the bath by superfusion for at least 3 minutes before application of agonist. Responses were quantified by measuring the peak amplitude.
The clone was grown up and prepared in large scale using the QIAgen maxiprep DNA preparation system according to the manufacturer's instructions. T he DNA was ethanol precipitated and resuspended in TE buffer. For RNA production, the P2X3 -pCDNA3.1 construct was linearized by digestion with the restriction enzyme NotI and P2X3 messenger RNA was produced using the T7 promoter in this vector and the Ambion mMessage mMachine™ in vitro transcription kit according to the manufacturer's instructions.
For functional anaysis of human P2X3 receptors, 10 ng of human P2X3 DNA prepared as described above were injected into the nucleus of Xenopus oocytes. Oocytes were incubated in normal Barth's solution containing 100 μg/ml gentamicin for 2-7 days following injection. The response to 10 μM ATP was then recorded.
Background: Two-electrode voltage clamp is typically applied to oocytes expressing channels or transporters.

The test system of a further test is P2X4 receptor. The note with it: cited from earlier work.
The next test deals with P2X6 receptor. The note with it: cited from earlier work.
The subject of the next test is P2X1. As to conditions: cited from earlier work.
A further test has as its system P2X2. As to conditions: cited from earlier work.

Consider five molecules from patent US6214581A, “Nucleic acids encoding a functional human purinoreceptor P2X3 and P2X6, and methods of production and use thereof” (Abbott Laboratories, priority 1998, dated 2001).

Broadly, the EC50 is the concentration at which the effect is half-maximal.

SMILES strings stand for the structures. Like-named read-outs stand apart in the source and are kept apart here.

For `Nc1ncnc2c1ncn2[C@@H]1O[C@H](COP(=O)(O)OP(=O)(O)OP(=O)(O)O)[C@@H](O)[C@H]1O` [ATP], the release of glutamate entry in test [1] was “stimulates the release of glutamate”. On human P2X3 receptors, the EC50 was roughly 700 nM and the rank order potency is reported as 2-methylthio-ATP>ATP>α,β-methylene-ATP. Further, the reversal potential result on human P2X3 receptors (ATP-induced current-voltage relationships) is listed as “approximately zero”. The current-voltage rectification result at human P2X3 receptors (ATP-induced, negative membrane potentials) is on record as “pronounced inward rectification”. The mixed-conductance cation current at human P2X3 receptors (extracellular ATP (10 μM), holding potential -60 mV, oocytes injected with human P2X3 DNA) is recorded as 100-6000 nA.
Regarding `CSc1nc(N)c2ncn([C@@H]3O[C@H](COP(=O)(O)OP(=O)(O)OP(=O)(O)O)[C@@H](O)[C@H]3O)c2n1` [2-methylthio-ATP], the EC50 at human P2X3 receptors (concentration-response, agonist, human P2X3 in Xenopus oocytes, ATP 0.01-1000 μM, read-out: EC50) came to 400 nM. For the same molecule, at human P2X3 receptors, the rank order potency is reported as 2-methylthio-ATP>ATP>α,β-methylene-ATP.
`Cc1ccc(C(=O)Nc2ccc(S(=O)(=O)O)c3cc(S(=O)(=O)O)cc(S(=O)(=O)O)c23)cc1NC(=O)c1cccc(NC(=O)Nc2cccc(C(=O)Nc3cc(C(=O)Nc4ccc(S(=O)(=O)O)c5cc(S(=O)(=O)O)cc(S(=O)(=O)O)c45)ccc3C)c2)c1` [suramin]: the “block of P2X4 receptor” value in the test with P2X4 receptor is recorded as “cannot be blocked”. Moreover, at human P2X3 receptors, the “block of ATP-induced currents” value is given as “complete block” and the “block of P2X3 receptors” value is given as “blocked”. Also, the “block of P2X6 receptor” value in the test on P2X6 receptor is “cannot be blocked”.
For the molecule `Cc1nc(N=Nc2ccc(S(=O)(=O)O)cc2S(=O)(=O)O)c(COP(=O)(O)O)c(C=O)c1O` [PPADS, pyridoxal-phosphate-6-azophenyl-2',4'-disulfonic acid], the “block of P2X4 receptor” value with P2X4 receptor is “cannot be blocked”. Further, at human P2X3 receptors, the “block of ATP-induced currents” value was “complete block” and the “block of P2X3 receptors” value is “blocked”. Also, the “block of P2X6 receptor” value with P2X6 receptor was “cannot be blocked”.
Regarding `Nc1ncnc2c1ncn2[C@@H]1O[C@H](COP(=O)(O)CP(=O)(O)OP(=O)(O)O)[C@@H](O)[C@H]1O` [α,β-methylene-ATP], the “activation of P2X4 receptor” value with P2X4 receptor (agonist) was “not activated”. In addition, in the test with P2X1, the “sensitivity of P2X1 to agonist” value is reported as “sensitive”. Moreover, on human P2X3 receptors, the EC50 turned out to be 2100 nM and the rank order potency is recorded as 2-methylthio-ATP>ATP>α,β-methylene-ATP. The “sensitivity of P2X2 to agonist” value in the test on P2X2 was “insensitive”. For the same molecule, in the test with P2X6 receptor (agonist), the “activation of P2X6 receptor” value is listed as “not activated”.
